{"source": "patent US20160279204A1", "about": "“PEPTIDES AND PHARMACEUTICAL COMPOSITIONS FOR USE IN THE TREATMENT BY NASAL ADMINISTRATION OF PATIENTS SUFFERING FROM ANXIETY AND SLEEP DISORDERS” (MAX-PLANCK-GESELLSCHAFT ZUR FÖRDERUNG DER WISSENSCHAFT E.V., priority 2011, published 2016)", "key": {"[1]": {"tested_on": "Bl6 and HAB mice", "experiment": "Open field after intranasal NPS", "assay_type": "in vivo, mouse", "protocol": "(§1) Behavioural tests (open field, dark-light test and elevated plus maze (EPM)) following intranasal NPS application were performed sequentially. Each test lasted for 5 min with an inter-test interval of 5 min, as described previously (Bunck et al., 2009; Krömer et al., 2005). The animals' behaviour during testing was videotaped and relevant parameters were analysed with the tracking software ANY-maze version 4.30 (Stoelting, Wood Dale, Ill., USA). Native NPS (1 μg/μL) or vehicle (Ringer solution) were administered intranasally to the alert mouse as described above (total volume: 14 μL). Mice were tested 30 min and 4 hrs after intranasal administration of first drop. Animals were sacrificed 24 hrs after treatment and prefrontal cortex and bilateral hippocampi were prepared immediately and shock-frozen in methylbutane.\nAfter having ascertained that nasally administered NPS reaches its target cells, anxiolytic effects of NPS were established for this transnasal delivery method. For this purpose, nasally 6.36 nmol NPS per mouse was administered to two mouse strains, Bl6 and HAB (high anxiety behaviour) mice. HAB animals, a mouse strain inbred for pathologically high anxiety, were chosen together with Bl6 mice to allow differentiation between the temporary condition of state anxiety and the general condition of trait anxiety (Bunck et al., 2009; Kromer et al., 2005). To accurately characterise the anxiety-relieving properties of NPS in these two mouse strains, three standardised behavioural assays measuring anxiolytic effects at two different time points after intranasal NPS administration were performed. In each test, the effects of intranasal NPS versus vehicle treatment on both anxiety- and locomotion-related indices were examined."}, "[2]": {"tested_on": "GluR1, GluR2, Glt-1, synapsin", "experiment": "Immunoblotting of prefrontal cortex and hippocampus lysates after intranasal NPS", "assay_type": "in vivo, mouse", "conditions": "24 hrs after intranasal NPS", "protocol": "as §1\nFor immunoblotting, proteins were extracted from aforementioned two brain regions (prefrontal cortex and bilateral hippocampi). Quantitative blot analysis was performed using ImageJ software (http://rsbweb.nih.gov/ij/; Rasband, W. S., ImageJ, U.S. National Institutes of Health). Primary antibodies used: Glt-1, Glu-R1, Glu-R2 (all 1:100; all from Santa Cruz Biotechnology, Santa Cruz, Calif., USA), synapsin (1:2000; Synaptic Systems, Goettingen, Germany) and GAPDH (1:2000, Santa Cruz Biotechnology, Santa Cruz, Calif., USA). Secondary antibodies used: donkey anti-goat IgG-HRP (1:10000; Santa Cruz Biotechnology, Santa Cruz, Calif., USA), goat anti-rabbit IgG-HRP (1:7500, Sigma-Aldrich, St. Louis, Mo., USA) and goat anti-mouse IgG-HRP (1:25000, Sigma-Aldrich, St. Louis, Mo., USA)."}}, "data": [{"substance": "neuropeptide S (SFRNGVGSGVKKTSFRRAKQ; Neuropeptide S; UniProt P0C0P7 70-89, looked up) [NPS, peptide agonist of neuropeptide S receptor (NPSR); native NPS, rat, from Bachem]", "values": [{"measurement": "behavioural differences versus vehicle in open field", "setting": "[1]; Bl6 and HAB mice, intranasal 6.36 nmol per mouse, 30 min", "result": "no behavioural differences"}, {"measurement": "any parameter examined in the open field", "setting": "[1]; Bl6 mice, intranasal, 4 hrs", "result": "no effect"}, {"measurement": "any parameter tested in the open field", "setting": "[1]; HAB mice, intranasal, 4 hrs", "result": "no differences"}, {"measurement": "synapsin expression", "setting": "[2]; Bl6 mice, hippocampus versus prefrontal cortex", "result": "significantly increased in the hippocampus only"}, {"measurement": "GluR1, GluR2 and Glt-1 expression", "setting": "[2]; Bl6 mice, hippocampus", "result": "remained unaffected"}, {"measurement": "Glt-1 expression level", "setting": "[2]; Bl6 mice, prefrontal cortex", "result": "significantly increased"}, {"measurement": "GluR1 expression level", "setting": "[2]; Bl6 mice, prefrontal cortex", "result": "significantly increased"}, {"measurement": "GluR2 expression", "setting": "[2]; Bl6 mice, prefrontal cortex", "result": "remained unchanged"}, {"measurement": "protein expression changes in the hippocampus", "setting": "[2]; HAB mice, hippocampus", "result": "no corresponding changes"}, {"measurement": "Glt-1 levels", "setting": "[2]; HAB mice, prefrontal cortex", "result": "remained unchanged"}, {"measurement": "GluR1 expression", "setting": "[2]; HAB mice, prefrontal cortex", "result": "not affected"}, {"measurement": "GluR2 expression", "setting": "[2]; HAB mice, prefrontal cortex", "result": "significantly increased"}]}]}
